From article PMC5084681, “Ephenidine: A new psychoactive agent with ketamine-like NMDA receptor antagonist properties” (Neuropharmacology, 2017)
“And” between values parts separate entries of the source, which are not always exact repeats. Equal values may be shown once. “Also recorded” adds a separate entry of the source. Read-outs that look alike come from different tables or passages of the source.

What was measured:
[1] = target: MK-801 binding site of the NMDA receptor; experiment: (+)-[3H]-MK-801 displacement binding in whole rat brain homogenate
Protocol: Termination of reaction was performed via vacuum filtration using a 24 well cell harvester (Brandel, Gaithersburg, MD) over presoaked GF/B glass fiber filters (Brandel, Gaithersburg, MD). Filters were washed with room temperature assay buffer (3 × 5 mL). Trapped tritium was measured via liquid scintillation counting, using a Beckman LS 6500 multipurpose scintillation counter (BeckmanCoulter, USA) at 57% efficiency. IC50 values were determined in Graphpad Prism 5.0 using non-linear regression with log-concentration plotted against percent specific binding. […] Ki values were calculated using the equation of [Cheng and Prusoff (1973)]. […] Protein concentration was determined via the Bradford method using Coomassie protein assay reagent (Sigma, USA) with rat albumin (Sigma, USA) as standard. Experiments were performed in duplicate and repeated three or four times.

[2] = target: dopamine transporter (DAT) (Homo sapiens, UniProt Q01959); experiment: NIMH PDSP receptor binding assay, dopamine transporter
Sequence of dopamine transporter (DAT) (Q01959 whole entry, species assumed): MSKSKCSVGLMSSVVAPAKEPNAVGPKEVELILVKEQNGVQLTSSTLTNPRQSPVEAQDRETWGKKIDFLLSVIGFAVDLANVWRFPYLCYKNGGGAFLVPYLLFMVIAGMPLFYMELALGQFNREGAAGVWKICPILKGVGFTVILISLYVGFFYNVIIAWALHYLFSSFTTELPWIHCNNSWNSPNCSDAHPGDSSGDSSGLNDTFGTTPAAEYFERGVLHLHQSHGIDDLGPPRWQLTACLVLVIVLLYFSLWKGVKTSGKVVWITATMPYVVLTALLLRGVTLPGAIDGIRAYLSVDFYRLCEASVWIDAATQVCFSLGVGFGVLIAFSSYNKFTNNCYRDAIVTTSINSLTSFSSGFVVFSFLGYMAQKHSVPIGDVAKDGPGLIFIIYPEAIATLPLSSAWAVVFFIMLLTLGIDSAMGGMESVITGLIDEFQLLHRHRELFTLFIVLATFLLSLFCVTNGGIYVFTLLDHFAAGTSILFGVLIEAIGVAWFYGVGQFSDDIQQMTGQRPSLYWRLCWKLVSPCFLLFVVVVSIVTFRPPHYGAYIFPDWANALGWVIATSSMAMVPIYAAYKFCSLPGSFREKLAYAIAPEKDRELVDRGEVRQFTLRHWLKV
Protocol: (§1) Displacement by ephenidine in binding assays of a further 45 CNS receptors was performed through the National Institute of Mental Health Psychoactive Drug Screening Program (NIMH PDSP). Briefly ephenidine, dissolved in DMSO, was subject to a primary screen at a concentration of 10 μM (see Suppl. 2 for radioligands used). […] Additional experimental details are available in the NIMH PDSP protocol book ([Roth et al., 2013]).

[3] = target: noradrenaline transporter (NET) (Homo sapiens, UniProt P23975); experiment: NIMH PDSP receptor binding assay, noradrenaline transporter
Sequence of noradrenaline transporter (NET) (P23975 whole entry): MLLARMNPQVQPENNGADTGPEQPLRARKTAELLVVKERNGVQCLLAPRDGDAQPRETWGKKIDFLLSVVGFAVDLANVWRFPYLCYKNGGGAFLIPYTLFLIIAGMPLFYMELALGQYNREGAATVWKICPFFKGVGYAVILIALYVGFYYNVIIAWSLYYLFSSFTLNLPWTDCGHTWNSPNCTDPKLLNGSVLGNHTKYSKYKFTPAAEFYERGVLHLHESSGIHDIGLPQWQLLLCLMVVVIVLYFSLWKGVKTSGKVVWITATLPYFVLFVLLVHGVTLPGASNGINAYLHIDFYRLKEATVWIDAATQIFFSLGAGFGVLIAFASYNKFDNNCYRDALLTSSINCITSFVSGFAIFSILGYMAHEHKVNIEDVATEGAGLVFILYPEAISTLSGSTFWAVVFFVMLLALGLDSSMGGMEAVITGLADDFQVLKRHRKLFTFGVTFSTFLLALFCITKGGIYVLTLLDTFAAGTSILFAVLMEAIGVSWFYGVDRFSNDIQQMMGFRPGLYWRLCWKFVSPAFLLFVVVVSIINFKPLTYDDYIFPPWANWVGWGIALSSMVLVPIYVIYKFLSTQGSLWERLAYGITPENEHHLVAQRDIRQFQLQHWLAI
Protocol: as §1

[4] = target: sigma 1 binding site (Homo sapiens, UniProt Q99720); experiment: NIMH PDSP receptor binding assay, sigma 1; conditions: affinity for sigma 1 binding site, NIMH PDSP secondary assay
Sequence of sigma 1 binding site (Q99720 whole entry): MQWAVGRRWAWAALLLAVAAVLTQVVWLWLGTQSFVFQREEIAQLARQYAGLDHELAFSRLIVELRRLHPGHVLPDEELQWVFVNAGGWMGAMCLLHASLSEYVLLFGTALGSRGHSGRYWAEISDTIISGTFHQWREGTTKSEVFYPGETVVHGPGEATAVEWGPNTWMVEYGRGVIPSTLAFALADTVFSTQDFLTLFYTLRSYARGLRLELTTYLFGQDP
Protocol: as §1

[5] = target: sigma 2 binding site (Homo sapiens, UniProt Q5BJF2); experiment: NIMH PDSP receptor binding assay, sigma 2
Sequence of sigma 2 binding site (Q5BJF2 whole entry): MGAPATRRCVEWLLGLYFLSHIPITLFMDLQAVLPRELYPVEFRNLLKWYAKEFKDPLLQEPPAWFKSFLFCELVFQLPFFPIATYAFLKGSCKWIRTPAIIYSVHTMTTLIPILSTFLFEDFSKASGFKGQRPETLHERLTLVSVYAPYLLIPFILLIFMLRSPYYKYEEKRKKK
Protocol: as §1

[6] = test system: remaining 41 CNS receptors (Supplement 2); experiment: NIMH PDSP primary binding screen at 10 μM, remaining 41 receptors
Protocol: as §1

[7] = test system: NMDA receptor-mediated fEPSP; experiment: Extracellular recording of NMDA receptor-mediated fEPSP in CA1 of hippocampal slices; format: cell-based, rat; conditions: for inhibition of NMDA receptor mediated fEPSP: after 4 h superfusion; for time-course of reduction of NMDA receptor mediated fEPSP: 1 and 10 μM
Protocol: (§2) Male Wistar and Sprague-Dawley rats (Crl:Wi; Charles River, UK) aged 3–10 weeks old were killed by dislocation of cervical vertebrae according to Schedule 1 of the United Kingdom (Scientific Procedures) Act of 1986. Brains were rapidly removed and put in artificial cerebrospinal fluid (aCSF) consisting of 124 mM NaCl, 26 mM NaHCO3, 3 mM KCl, 1.4 mM NaH2PO4, 1 mM MgSO4, 2 mM CaCl2, and 10 mM D-glucose and continuously oxygenated with 95% O2 and 5% CO2. Parasagittal brain slices, 400 μm thick, of the hippocampus were removed, stored and placed in a submerged recording chamber at 28–30 °C.
(§3) Recordings of extracellular synaptic activity were made ([Ceolin et al., 2012], [Volianskis et al., 2013]) using a bipolar electrode to deliver stimuli (0.03 Hz) to the Schaffer collateral pathway to evoke field excitatory postsynaptic potentials (fEPSPs) recorded from a glass microelectrode (3–6 MΩ) in the stratum radiatum of area CA1. […] In initial experiments after 30 min of stable control responses, the remaining response was challenged with 30 μM ephenidine. Using this protocol for isolating NMDA-fEPSPs (see Fig. 2A), 1 and 10 μM ephenidine or 1 and 10 μM D-2-amino-5-phosphonopentanoic acid (D-AP5) were added to the perfusate for up to 4 h while recording the amplitude and area of the NMDA-fEPSP on-line using WinLTP ([Anderson and Collingridge, 2007]). Single exponential curves were fitted to show likely half-times and minimum plateau responses achieved with each concentration used. For selectivity experiments, 50 μM picrotoxin and 1 μM CGP 55845 were added to the solution from the beginning of the experiment and 50 μM ephenidine was superfused for 60 min in the absence of other pharmacological agent.

[8] = test system: AMPA receptor-mediated fEPSP; experiment: Extracellular recording of AMPA receptor-mediated fEPSP in CA1 of hippocampal slices; format: cell-based, rat
Protocol: as §2
as §3, with “Single exponential curves were fitted to show likely half-times and minimum plateau responses achieved with each concentration used. For selectivity experiments, 50 μM picrotoxin and 1 μM CGP 55845 were added to the solution from the beginning of the experiment and 50 μM ephenidine was superfused for 60 min in the absence of other pharmacological agent.” left out

[9] = test system: NMDA receptor-mediated EPSCs; experiment: Whole-cell patch clamp of NMDA receptor-mediated EPSCs in CA1 pyramidal cells; format: cell-based, rat
Protocol: as §2
Whole-cell patch clamp recordings of excitatory postsynaptic currents (EPSCs) were made from CA1 pyramidal cells under visual guidance with IR-DIC optics as described by [Park et al. (2016)]. The recording chamber was maintained at 32 °C. Borosilicate glass pipettes were used with a resistance of 3–5 MΩ. The internal solution comprised (mM): 8 NaCl, 130 CsMeSO3, 10 HEPES, 0.5 EGTA, 4 Mg-ATP, 0.3 Na3-GTP, 5 QX-314 and 0.1 spermine. The pH was adjusted to 7.2–7.3 with CsOH and osmolarity to 285–290 mOsm. Peak amplitude of EPSCs was measured while varying holding voltage from −60 mV to +60 mV and stimulating the Schaffer collateral pathway at a frequency of 0.1 Hz at constant intensity. Five consecutive responses obtained at each holding potential were averaged to plot the current-voltage relationship. Currents through NMDA receptors were pharmacologically isolated using 10 μM NBQX, 50 μM picrotoxin and 20 μM (+)-bicuculline. In initial experiments, MgSO4 was omitted from the bath solution for at least 30 min before patching and replaced with 30 μM ephenidine, 10 μM ketamine, 30 μM D-AP5 or 2 mM MgSO4. Rectification indices were calculated from the EPSC values at +40 mV and −40 mV. In subsequent experiments, slices were incubated in aCSF with no added MgSO4, before transferring to the recording chamber to obtain control current-voltage plots from NMDA-EPSCs as above before adding 2 mM MgSO4 or 30 μM ephenidine for 30 min and repeating the current-voltage protocol. Representative sample traces are shown from typical experiments, and stimulus artifacts blanked for clarity. Data were normalized to the baseline preceding drug application, and are presented as mean ± SEM and compared using one-way ANOVA and level of significance is denoted as *** for p values < 0.001.

[10] = test system: long-term potentiation (LTP) in CA1; experiment: LTP of fEPSPs in Schaffer collateral-CA1 pathway induced by theta burst stimulation; format: cell-based, rat
Protocol: as §2
To study the effect of ephenidine on long-term potentiation (LTP), slices were incubated in control aCSF or aCSF containing 10 μM ephenidine for at least 2 h before transferring to the recording chamber, fEPSPs were recorded as above without addition of other agents. After obtaining stable responses, a theta burst stimulation (TBS; [Park et al., 2016]) was applied to the Schaffer collateral pathway and the amplitude of the fEPSP in CA1 monitored for at least a further 40 min.

[11] = test system: PCP binding site; set-up: method as in Thurkauf et al., 1989; conditions: ref Thurkauf et al., 1989; cited from earlier work
[12] = target: MK-801 binding site of the NMDA receptor; set-up: method as in Wallach et al., 2016; conditions: same assay, ref Wallach et al., 2016, cited from earlier work; for Ki: read-out: Ki, (+)-[3H]-MK-801 displacement

## CCNC(Cc1ccccc1)c1ccccc1 (stereo not shown) [ephenidine, N-Ethyl-1,2-diphenylethanamine]
[1]; 1 nM (+)-[3H]-MK-801
  IC50: 104 ± 5.9 nM
[1]; 1 nM (+)-[3H]-MK-801, Cheng-Prusoff
  Ki: 66 nM and 66.4 nM
[2]
  Ki: 379 nM
[3]
  Ki: 841 nM
[4]
  Ki: 629 nM and 628 nM
[5]
  Ki: 721 nM
[6]
  displacement in primary screen: less than 50%
[7]; 1 μM
  inhibition of NMDA receptor mediated fEPSP: 25%
[7]; 10 μM
  inhibition of NMDA receptor mediated fEPSP: near maximal inhibition; also recorded: near maximal effect
[7]; 30 μM
  effect on NMDA receptor mediated fEPSP: slowly reduced
[8]; 50 μM, 1 h superfusion
  effect on AMPA receptor mediated fEPSP (peak amplitude): lack of effect; also recorded: did not affect; also recorded: no significant reduction
[9]; 10 μM
  block of NMDA receptor-mediated EPSCs: blocked NMDA receptor-mediated EPSCs in a highly voltage-dependent manner
[9]; 30 μM ephenidine, no added Mg2+
  rectification index (RI; +40 mV/−40 mV): 3.6 ± 0.3
[9]; 30 μM, no added Mg2+
  effect on NMDA-EPSC current-voltage relationship: reduction of inward current at negative holding potentials
[9]; 30 μM, no added Mg2+, holding potential +40 mV
  mean NMDA-EPSC current at +40 mV: 133 ± 12 pA
[9]; 30 μM, no added Mg2+, holding potential −40 mV
  mean NMDA-EPSC current at −40 mV: −48 ± 8 pA
[10]; 10 μM
  effect on induction of LTP: blocked the induction of long term potentiation (LTP); also recorded: completely blocked the induction of LTP
[10]; 30 μM
  effect on induction of LTP: completely blocked the induction of LTP
[11]
  affinity for the PCP binding site: 257 nM

## N[C@H](CCCP(=O)(O)O)C(=O)O [D-AP5, D-2-amino-5-phosphonopentanoic acid, reference compound]
[7]
  time-course of reduction of NMDA receptor mediated fEPSP: rapid reduction
[9]; 30 μM D-AP5, no added Mg2+
  rectification index (RI; +40 mV/−40 mV): 0.8 ± 0.01
[9]; 30 μM, no added Mg2+
  effect on NMDA-EPSC current-voltage relationship: reduced both inward and outward current

## NS(=O)(=O)c1cccc2c1c([N+](=O)[O-])cc1nc(O)c(O)nc12 [NBQX, reference compound]
[8]; 3 μM
  effect on AMPA receptor mediated fEPSP: rapid block of the remaining fEPSP

## CNC1(c2ccccc2Cl)CCCCC1=O (stereo not shown) [ketamine]
[7]
  time-course of reduction of NMDA receptor mediated fEPSP: slower reduction
[9]; 10 μM, no added Mg2+
  rectification index (RI; +40 mV/−40 mV): 2.0 ± 0.2
[12]; listed as Ketamine
  Ki: 324 ± 19.2 nM
[12]; read-out: IC50, (+)-[3H]-MK-801 displacement
  IC50: 508 ± 30.1 nM
[12]
  Ki: 324 ± 19 nM
